Assay results reported in ChEMBL document CHEMBL1126166, “Synthesis of the -phosphonic acid analogue of kainic acid” (Bioorg Med Chem Lett, 1992).

Biological target: Glutamate receptor ionotropic, kainate (Rattus norvegicus) (UniProt P22756+Q01812+P42260+P42264+Q63273)
Assay: Compound was evaluated for the inhibition of kainate receptor binding at 10 uM
Type: protein-complex assay

In the case of `C=C(C)[C@H]1CN[C@H](C(=O)O)[C@H]1CP(=O)(O)O`, the inhibition is reported as 77%.
